Each compound was assayed against T1, androgen receptor (AR) (Homo sapiens, UniProt P10275, T878A) (assay: LNCaP PSA (6.1 kb)-luciferase assay (R1881-induced)). Details: LNCaP PSA (6.1 kb)-luciferase assay, dose response against DMSO and EPI-001 controls (FIGS. 1-6).
T1 construct: LNCaP cells express endogenous AR and secrete prostate-specific antigen (PSA); endogenous in cells; host or cells: LNCaP human prostate cancer cells
T1 sequence (P10275 1-920 T878A): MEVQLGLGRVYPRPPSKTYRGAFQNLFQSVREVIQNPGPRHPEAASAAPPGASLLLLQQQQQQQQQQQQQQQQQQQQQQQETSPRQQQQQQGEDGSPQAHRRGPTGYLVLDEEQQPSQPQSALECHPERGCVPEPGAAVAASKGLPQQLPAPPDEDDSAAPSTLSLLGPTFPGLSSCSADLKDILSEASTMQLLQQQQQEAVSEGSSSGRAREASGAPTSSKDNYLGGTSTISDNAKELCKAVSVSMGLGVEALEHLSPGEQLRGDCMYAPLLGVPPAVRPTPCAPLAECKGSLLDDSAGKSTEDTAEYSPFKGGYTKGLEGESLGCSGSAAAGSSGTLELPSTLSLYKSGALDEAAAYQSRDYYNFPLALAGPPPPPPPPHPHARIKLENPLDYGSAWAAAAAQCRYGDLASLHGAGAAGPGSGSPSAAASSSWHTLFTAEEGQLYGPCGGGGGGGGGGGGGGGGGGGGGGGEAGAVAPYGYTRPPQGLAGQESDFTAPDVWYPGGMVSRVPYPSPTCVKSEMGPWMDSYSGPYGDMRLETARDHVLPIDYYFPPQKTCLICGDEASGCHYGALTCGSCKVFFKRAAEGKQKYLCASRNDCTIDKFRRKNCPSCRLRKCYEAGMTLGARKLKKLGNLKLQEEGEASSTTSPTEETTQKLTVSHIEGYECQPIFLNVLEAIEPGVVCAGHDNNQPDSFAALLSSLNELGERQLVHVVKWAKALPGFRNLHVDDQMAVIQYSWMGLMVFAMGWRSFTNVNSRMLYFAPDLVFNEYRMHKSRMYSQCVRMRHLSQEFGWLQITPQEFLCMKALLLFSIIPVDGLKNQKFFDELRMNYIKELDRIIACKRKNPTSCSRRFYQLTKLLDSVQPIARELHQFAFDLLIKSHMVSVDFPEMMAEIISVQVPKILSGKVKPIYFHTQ
Assay type: cell-based
Source text: LNCaP cells were employed initially for all experiments because they are well-differentiated human prostate cancer cells in which ligand-independent activation of the AR by FSK has been characterized (Nazareth et al 1996 J. Biol. Chem. 271, 19900-19907; and Sadar 1999 J. Biol. Chem. 274, 7777-7783). LNCaP cells express endogenous AR and secrete prostate-specific antigen (PSA) (Horoszewicz et al 1983 Cancer Res. 43, 1809-1818). LNCaP cells can be grown either as monolayers in cell culture or as tumors in the well-characterized xenograft model that progresses to androgen independence in castrated hosts (Sato et al 1996 J. Steroid Biochem. Mol. Biol. 58, 139-146; Gleave et al 1991 Cancer Res. 51, 3753-3761; Sato et al 1997 Cancer Res. 57, 1584-1589; and Sadar et al 2002 Mol. Cancer. Ther. 1(8), 629-637). […] Small molecules that specifically target the AR-NTD should have no effect on PC3 cells. This means that they should not alter the proliferation of PC3 cells if they specifically block the AR to mediate their inhibitory effects. R1881 was employed since it is stable and avoids problems associated with the labile physiological ligand dihydrotestosterone (DHT). Reporter specificity may be determined using several alternative reporter gene constructs. Some well characterized ARE-driven reporter gene constructs that have been used extensively are the PSA (6.1 kb) enhance/promoter which contains several AREs and is highly inducible by androgens as well as by FSK (Ueda et al 2002 A J. Biol. Chem. 277, 7076-7085) and the ARR3-thymidine kinase (tk)-luciferase, which is an artificial reporter construct that contains three tandem repeats of the rat probasin ARE1 and ARE2 regions upstream of a luciferase reporter (Snoek et al 1996 J. Steroid Biochem. Mol. Biol. 59, 243-250).
LNCaP cells were transiently cotransfected with PSA (6.1 kb)-luciferase (0.25 μg/well) in 24-well plates for 24 h prior to pre-treatment with compounds for 1 hour before the addition of synthetic androgen, R1881 (1 nM) to induce PSA production or vehicle. The total amount of plasmid DNA transfected was normalized to 0.75 μg/well by the addition of the empty vector. After 48 h of incubation with R1881, the cells were harvested, and relative luciferase activity was determined. Test compounds were added to the cells at various concentrations and activity for each treatment was normalized to the predicted maximal activity induction (in the absence of test compounds, vehicle only). Plotting of sigmoidal curves (Boltzmann Function) and IC50 calculations were done using OriginPro 8.1 Software (Northampton, Mass., USA).
Using the LNCaP PSA (6.1 kb)-luciferase assay described above, various compounds described herein were tested against DMSO and EPI-001 controls. In FIG. 1, a comparison is made between EPI-100, EPI-101, EPI-102 and DMSO from 1 to 35 μM. […] In FIG. 3A, EPI-107 is compared to DMSO and EPI-001 at 2.5 μM to 10 μM. In FIG. 3B, EPI-108 is compared to DMSO at 0.5 μM to 35 μM. In FIG. 4A, EPI-114 is compared to DMSO and EPI-001 at 5 μM and 10 μM. In FIG. 4B, EPI-116 is compared to DMSO and EPI-001 at 1 μM to 30 μM.

With `C#CCOc1ccc(C(=O)c2ccc(O)cc2)cc1` [EPI-106] as the compound, how does the “androgen receptor inhibitory activity” value read?
The value was “showed androgen receptor inhibitory activity”.

With `C#CCOc1ccc(C(=O)c2ccc(OCC#C)cc2)cc1` [EPI-109] as the compound, how does the “androgen receptor inhibitory activity” value read?
The value was “showed androgen receptor inhibitory activity”.

`OC(CCl)COc1ccc(-c2ccc(OCC(O)CCl)cc2)cc1` (stereo not drawn) [EPI-3000] was tested. Which “androgen receptor inhibitory activity” value did it give?
The value was “showed androgen receptor inhibitory activity”.

For `OC(CCl)COc1ccc(Sc2ccc(OCC(O)CCl)cc2)cc1` (stereo not drawn) [EPI-400], which “androgen receptor inhibitory activity” value is on record?
The value was “showed androgen receptor inhibitory activity”.

With `C#CCOc1ccc(C(=O)c2ccc(OCC(O)CO)cc2)cc1` (stereo not drawn) [EPI-111] as the compound, how does the “androgen receptor inhibitory activity” value read?
Its value is “showed androgen receptor inhibitory activity”.

`O=C(c1ccc(OCCCCl)cc1)c1ccc(OCCCCl)cc1` [EPI-116] was tested. Which “androgen receptor inhibitory activity” value did it give?
Its value is “showed androgen receptor inhibitory activity”.

`OC(CCl)COc1ccc(Oc2ccc(OCC(O)CCl)cc2)cc1` (stereo not drawn) [EPI-300] was tested. Which “androgen receptor inhibitory activity” value did it give?
Its value is “showed androgen receptor inhibitory activity”.

`C#CCOc1ccc(C(=O)c2ccc(OCCCCl)cc2)cc1` [EPI-107] was tested. Which “androgen receptor inhibitory activity” value did it give?
Its value is “showed androgen receptor inhibitory activity”.

How did the “androgen receptor inhibitory activity” value turn out when `C#CCOc1ccc(C(=O)c2ccc(OCCCBr)cc2)cc1` [EPI-108] was run?
The value was “showed androgen receptor inhibitory activity”.

How did the “androgen receptor inhibitory activity” value turn out when `O=C(c1ccc(OCC(O)CCl)cc1)c1ccc(OCC(O)CCl)cc1` (stereo not drawn) [EPI-114] was run?
Its value is “showed androgen receptor inhibitory activity”.

Which “androgen receptor inhibitory activity” value does the source give for `O=C(c1ccc(O)cc1)c1ccc(OCCCCl)cc1` [EPI-117] here?
Its value is “showed androgen receptor inhibitory activity”.

Same assay, conditions: LNCaP cells transfected with PSA (6.1 kb)-luciferase, 1 h pre-treatment with compound, R1881 1 nM, 48 h

For `CC(C)(c1ccc(OCC(O)CO)cc1)c1ccc(OCC(O)CCl)cc1` (centres unmarked) [reference compound], which “EXPERIMENTAL DATA (activity in the LNCaP PSA (6.1 kb)-luciferase assay)” value (from here on “EXPERIMENTAL DATA”) is on record?
The value was “Active (positive control)”.

With `C#CCOc1ccc(C(=O)c2ccc(OCC#C)cc2)cc1` [drawing 508] as the compound, how does the “EXPERIMENTAL DATA” value read?
The value was “Active”.

For `C#CCOc1ccc(C(=O)c2ccc(OC[C@H](O)CCl)cc2)cc1`, which “EXPERIMENTAL DATA” value is on record?
The value was “Active”.

`C#CCOc1ccc(C(=O)c2ccc(OC[C@@H](O)CCl)cc2)cc1` was tested. Which “EXPERIMENTAL DATA” value did it give?
Its value is “Active”.

With `O=C(c1ccc(OCC(O)CCl)cc1)c1ccc(OCC(O)CCl)cc1` (centres unmarked) [drawing 510] as the compound, how does the “EXPERIMENTAL DATA” value read?
The value was “Active”.

Which “EXPERIMENTAL DATA” value does the source give for `O=C(c1ccc(OCCCCl)cc1)c1ccc(OCCCCl)cc1` [drawing 511] here?
The value was “Active”.

`C#CCOc1ccc(C(=O)c2ccc(O)cc2)cc1` [drawing 505] was tested. Which “EXPERIMENTAL DATA” value did it give?
Its value is “Active”.

`C#CCOc1ccc(C(=O)c2ccc(OCCCCl)cc2)cc1` [drawing 506] was tested. Which “EXPERIMENTAL DATA” value did it give?
Its value is “Active”.

Which “EXPERIMENTAL DATA” value does the source give for `OC(CCl)COc1ccc(-c2ccc(OCC(O)CCl)cc2)cc1` (centres unmarked) [drawing 515] here?
The value was “Active”.

Which “EXPERIMENTAL DATA” value does the source give for `C#CCOc1ccc(C(=O)c2ccc(OCCCBr)cc2)cc1` [drawing 507] here?
Its value is “Active”.

For `O=C(c1ccc(O)cc1)c1ccc(OCCCCl)cc1` [drawing 512], which “EXPERIMENTAL DATA” value is on record?
The value was “Active”.

`OC(CCl)COc1ccc(Oc2ccc(OCC(O)CCl)cc2)cc1` (centres unmarked) [drawing 513] was tested. Which “EXPERIMENTAL DATA” value did it give?
Its value is “Active”.

With `C#CCOc1ccc(C(=O)c2ccc(OCC(O)CO)cc2)cc1` (centres unmarked) [drawing 509] as the compound, how does the “EXPERIMENTAL DATA” value read?
Its value is “Active”.

For `C#CCOc1ccc(C(=O)c2ccc(OCC(O)CCl)cc2)cc1` (centres unmarked), which “EXPERIMENTAL DATA” value is on record?
Its value is “Active”.

Which “EXPERIMENTAL DATA” value does the source give for `OC(CCl)COc1ccc(Sc2ccc(OCC(O)CCl)cc2)cc1` (centres unmarked) [drawing 514] here?
The value was “Active”.
